The values that follow come from patent publication US9486423B2, “Redox-directed chelators targeting intracellular metal ions” (THE ARIZONA BOARD OF REGENTS ON BEHALF OF THE UNIVERSITY OF …, priority 2014, dated 2016).

The IC50 is the concentration at which inhibition is half-maximal.

The structures appear in SMILES notation. A value given as a limit tells only on which side of the number the result lay.

The conditions of series [1]: clinical trials terminated; cited from earlier work.
Series [2] relates to MDA-MB-231 (breast adenocarcinoma) cells. Nature of the series: MTT assay of cell viability, MDA-MB-231. As to conditions: in the presence of human holotransferrin. It is filed as cell-based. The protocol:
(§1) The present inventors have also investigated the antiproliferative activity of series of pro-chelators and chelators of the invention towards human cell lines. MTT assays of cell viability (Table 1) were performed on two cancer cell lines, neuroepithelioma SK-N-MC and breast adenocarcinoma MDA-MB-231, which are well studied in the context of iron deprivation. The established antiproliferative iron chelator DFO was used as a control and its toxicity profiles compared well to literature ones for these cell lines. Viability measurements were conducted in the presence of human holotransferrin in order to load intracellular iron pools and assess antiproliferative activity related to intracellular iron deprivation.
(§2) MDA-MB-231 (ATCC® HTB-26™) breast adenocarcinoma cells and SK-N-MC (ATCC® HTB-10™) neuroepithelioma cells were cultured under a 5% CO2 humidified atmosphere at 37° C. in Eagle's Minimal Essential Medium (EMEM) supplemented with 10% fetal bovine serum (FBS), glutamine (2 mM), sodium pyruvate (1 mM), sodium bicarbonate ([…]), penicillin (100 units/mL), streptomycin (100 μg/mL) and 1.25 μM (1 mg/10 mL) human holo-transferrin (Aldrich) prior to use. Jurkat T lymphocytes (ATCC® T1B-152™) were cultured at 37° C. under a 5% CO2 humidified atmosphere in RPMI 1640 media supplemented with 10% FBS, penicillin (5 mg/ml) and streptomycin (1 mg/ml), and maintained at a density lower than 2.0×10^6 cells/mL.

The subject of series [3] is SK-N-MC (neuroepithelioma) cells. Put plainly: MTT assay of cell viability, SK-N-MC. As to conditions: 48 h exposure, in the presence of human holotransferrin. It is filed as cell-based. The protocol:
as §1, §2
For orientation: Tetrazolium dyes change colour on reduction, which living cells bring about.

The test system of series [4] is ribonucleotide reductase (RNR) tyrosyl radical in Jurkat cells. Nature of the series: Whole-cell EPR of the tyrosyl radical of ribonucleotide reductase. Particulars: 50 μM. It is filed as cell-based, human. As to the method:
FIG. […] Experimental conditions: microwave frequency, 9.338 GHz; microwave power, 2 mW; magnetic field modulation amplitude, 0.5 mT; temperature, 30° K.
EPR data were also used to examine the effect of chelation system on the tyrosyl radical that characterizes the active site of ribonucleotide reductase (RNR), the iron-dependent enzyme that is believed to be essential in DNA biosynthesis.

Series [5] concerns MDA-MB-231 cells. Put plainly: Effect of NAC supplementation on toxicity (viability assay). It is filed as cell-based, human. Particulars: 10.0 μM compound, 48 h, after 6 h NAC. As to the method:
FIG. 4 is a bar graph showing the effect of N-acetyl cystein (NAC) supplementation on the toxicity of DFO (10 μM) and (TC1-S)2 (10 μM). MDA-MB-231 cells were incubated with NAC for 6 h before treatment with DFO (10.0 μM) or (TC1-S)2 (10.0 μM) for 48 h. Percent viability is expressed relative to control treated with DMSO and averaged over three experiments±percent standard deviation.
The control of reducing conditions employed in vitro in the experiments summarized above cannot be achieved in cell culture; nevertheless, the intracellular concentration of GSH can be increased by supplementing with N-acetyl cysteine (NAC), a precursor required for GSH biosynthesis. […] FIG. 4.

Series [6] deals with MRC-5 (normal lung fibroblast) cells. Nature of the series: MTT assay of cell viability, MRC-5. It is filed as cell-based, human. As to conditions: for IC50: MTT assay, 72 h exposure; for toxicity in normal lung fibroblasts (comparison): normal cells. As to the method:
as §1
Because normal cells divide at a lower rate, MTT assays were performed after exposures of 48 h and also 72 h (Table 1).

Series [7] can be described thus: Cyclic voltammetry in DMF. It is filed as physicochemical. Particulars: glassy carbon electrode. The source says: FIG. 10 is a cyclic voltammograms of disulfides 1a-c at a glassy carbon electrode in DMF with (n-Bu4N)(PF6) as supporting electrolyte. Data collected at a 100 mVS^−1 sweep rate using Ag/AgNO3 reference electrode and a platinum wire auxiliary electrode.
The reduction of disulfides 1a-c was investigated by electrochemical methods in N,N-dimethylformamide. FIG. 10. The collected cyclic voltammograms present irreversible cathodic peaks that are characteristic of aromatic disulfide reduction and correspond to the two-electron reductive process leading to formation of two thiolate ions. Consistent with reported electronic effects of substituents in aromatic disulfides, peak reduction potentials of compounds 1a-c vary considerably with the substitution on the thiosemicarbazone unit. […] These experiments established that electronic effects of the partially conjugated chelating units modulate the thermodynamic drive to reduction of disulfide constructs. Similarly, it is expected that an electron withdrawing group substituent on the phenyl ring itself (e.g., R^3 and/or R^4 in Formula I) will also result in lower reduction potential. As used herein, the term “electron withdrawing group” refers to any substituent that draws electron density away from a given center (e.g., disulfide or thiol group in compounds 1a-c and 2a-c, respectively). […]

The nature of series [8]: Reduction by GSH monitored by UV-visible absorption spectroscopy. It is filed as physicochemical. As to conditions: GSH 11.0 mM. The protocol: FIG. 2 is a graph showing reduction of (TC1-S)2 (9.0 μM) by GSH (11.0 mM) as monitored by UV-visible absorption spectroscopy in buffered aqueous solution (50 mM PIPES, pH 7.4) at 25° C. Spectral changes during the reduction of (TC1-S)2 (Line 2, […]) to TC1-SH (Line 1) by GSH (11.0 mM). The reaction goes to substantial completion within 2 h.
The reduction of (TC1-S)2 can be monitored in vitro by UV-visible absorption spectroscopy. FIG. 2.

Series [9] in a line: Equilibration in GSH/GSSG redox buffer solutions at different half-cell potentials. It is filed as physicochemical. As to conditions: half-cell potentials of −220 mV or lower (vs SHE); 12.5 μM disulfide, 11-13 mM total glutathione, 2 h. As to the method: FIG. 3 is a graph showing the fraction of reduced chelator TC1-SH obtained from UV-visible absorption data in GSH/GSSG redox buffer solutions at different half-cell potentials. Total ([GSH]+[GSSG]) was maintained at 11-13 mM, whereas initial [(TC1-S)2] was 12.5 μM. Samples were allowed to equilibrate for 2 h. Data points are plotted as average of triplicate measurements±standard deviation.
In order to estimate the speciation of the prochelator/chelator system in solutions containing glutathione levels reflecting biologically relevant conditions, disulfide (TC1-S)2 was allowed to equilibrate in a series of redox buffer mixtures. The half-cell potentials for the solutions were calculated based on the concentrations of GSH and GSSG and they were selected to include values from those typically associated to proliferating cells (−240 mV vs SHE) to those found in necrotic cells (−180 mV). […] FIG. 3. As such, in this model of intracellular conditions containing micromolar chelation system and millimolar glutathione buffer, the chelation system after equilibration was found prevalently in its reduced iron-binding form at glutathione half-cell potentials that are characteristic of proliferating and malignant cells.

Series [10] relates to Jurkat cells. Put plainly: Calcein-AM fluorescence assay of intracellular iron binding. It is filed as cell-based, human. As to conditions: suspended Jurkat cells loaded with calcein; SIH added after (TC1-S)2. The source says: FIG. 5 is a graph showing displacement of paramagnetic ions and restoration of calcein fluorescence by addition of chelators (TC1-S)2 and SIH at the indicated times and final concentrations in suspended Jurkat cell cultures. Fluorescence intensity at 517 nm (excitation, 488 nm) is plotted as the difference from the initial values before any addition. DMSO concentration was kept constant in all solutions.
Intracellular iron binding was first examined using calcein-AM, the acetoxymethyl ester of a fluorescein-based sensor of metal ions in biological specimens. Trapped intracellularly upon hydrolysis of the ester groups by esterases, calcein coordinates iron and possibly other (far less abundant) cations (e.g., Cu(II) and Zn(II)). Calcein stabilizes ferric iron coordination and this paramagnetic ion quenches considerably its fluorescence emission.

Series [11] relates to MDA-MB-231 cells. Nature of the series: Intracellular ROS generation, oxidation of DCFH2 to DCF. As to conditions: 30 min incubation, compared to H2O2 (100 μM) positive control. It is filed as cell-based, human. As to the method:
FIG. 8 is a bar graph showing intracellular generation of ROS monitored through the oxidation of DCFH2 to fluorescent DCF (ex: 485 nm, em: 528 nm). MDA-MB-231 cells were treated with DCFH2-DA (10 μM, 10 min), washed and then incubated with test compounds (concentrations as shown, 30 min). H2O2 (100 μM) was employed as a positive control. Measurements were conducted in triplicate and reported as average±standard deviation.
The in-vitro results above were confirmed in cultures of MBA-MD-231 breast carcinoma cells using a fluorescence-based assay of ROS generation. Added to the growth media, cell-permeable dihydrodichlorofluorescein diacetate (DCFH2-DA) was hydrolized intracellularly to trap the probe dihydrodichlorofluorescein (DCFH2), which was oxidized by several ROS to give the bright fluorescent product dichlorofluorescein. […] FIG. 8.

Series [12] is described as follows: Iron coordination with Fe(BF4)2.6H2O. It is filed as binding. As to conditions: organic solvents and buffered aqueous solutions. The source says:
Consistent with the modest coordinating ability of disulfide linkages in general and the conformational restraints they impose on the joint thiosemicarbazone units in this case, disulfides 1a-c behave as masked pro-chelators of low iron coordinating ability.
Conversely, thiols 2a-c react readily with Fe(BF4)2.6H2O in organic solvents and in buffered aqueous solutions. From reactions in THF, iron complexes 3a-c were isolated by crystallization and characterized by high-resolution mass spectrometry and elemental analysis. Complexes 3a (FIG. 11) and 3b were also characterized by single crystal X-ray diffraction analysis.

`NC(=S)NN=Cc1ncccc1N` [Compound 3-AP, 3-Aminopyridine-2-carboxaldehyde thiosemicarbazone]: the adverse side effects entry in series [1] is “methemoglobinemia”.

Consider `CC(=O)N(O)CCCCCNC(=O)CCC(=O)N(O)CCCCCNC(=O)CCC(=O)N(O)CCCCCN` [DFO, desferrioxamine, reference compound], for which the IC50 in [2] (Homo sapiens, MDA-MB-231, 48 h, 48 h exposure) was found to be 17 µM; in series [2] (MDA-MB-231, 48 h exposure), 17.05 ± 0.05 µM; in series [3] (SK-N-MC) it was 10.02 ± 0.06 µM; in series [6] (Homo sapiens, MRC5) it was 8.04 ± 0.03 µM. Also, in series [4] (3 h), the “RNR tyrosyl radical EPR signal” value is “loss of signal”. In [5], the “effect of increasing NAC on toxicity” value was “not affected significantly”.

Turning to `NC(=S)NN=Cc1ccccc1SSc1ccccc1C=NNC(N)=S` [Compound 1a], the figures for the IC50 in series [2] (48 h exposure) and in series [3] were 22.07 ± 0.04 µM and 8.91 ± 0.09 µM, respectively.

For `S=C(NN=Cc1ccccc1SSc1ccccc1C=NNC(=S)Nc1ccccc1)Nc1ccccc1` [Compound 1c], the IC50 in [2] (48 h exposure) was 4.59 ± 0.06 µM; in series [2] (48 h exposure, listed as (TC1-S)2), 4.6 µM; in [3] it was 6.81 ± 0.17 µM; in [6], 30.91 ± 0.02 µM. For the same molecule, the “ease of disulfide reduction (peak reduction potential)” value in [7] is “easier to reduce compared to analogues 1a and 1b”. Also, in series [4] (1 h), the “RNR tyrosyl radical EPR signal” value is recorded as “decrease in RNR signal amplitude”. Also, the “time to substantial completion of reduction to TC1-SH” value in series [8] (9.0 μM disulfide, 50 mM PIPES, pH 7.4, 25° C.) is given as at most 2 h. The “conversion of disulfide to thiol” value in series [8] (neutral buffered aqueous solution, 9.0 μM) is listed as “converted substantially quantitatively”. Moreover, in [5], the “effect of increasing NAC on toxicity” value is “more susceptible”. Besides, in series [9], the “estimated equilibrium percentage of thiol” value was “greater than 80%”. Besides, in series [10], the calcein fluorescence intensity result is recorded as “concentration-dependent increase in fluorescence intensity”. Also, the “intracellular generation of ROS (DCF fluorescence)” value in series [11] is “did not elicit significant turn-on response”. Besides, the “toxicity in normal lung fibroblasts (comparison)” value is reported as “significantly less toxic than its corresponding thiol 2c” in [6] and “significantly less toxic than DFO” in [6] (listed as (TC1-S)2).

Consider `S=C(NN=Cc1ccccc1S)Nc1ccccc1` [Compound 2c], for which the IC50 stood at 15.01 ± 0.05 µM in series [2] (48 h exposure), 5.19 ± 0.17 µM in [3] and 15.08 ± 0.02 µM in [6]. Besides, the iron coordination entry in series [12] was “readily coordinates Fe(II) ions”. The “stability of thiol in solution” value in series [8] (neutral buffered aqueous solution) is recorded as “over 6 h”. In [11], the “intracellular generation of ROS (DCF fluorescence)” value was “did not elicit significant turn-on response”.

Turning to `O=C(NN=Cc1ccccc1O)c1ccncc1` [SIH, salicylaldehyde isonicotinoyl hydrazone, reference compound], in [10], the calcein fluorescence intensity result is “further increased fluorescence intensity”.
